Experiment: Stability study of lyophilized Compound I with mannitol (Method A / Method B samples)
Assay type: physicochemical
Settings: Method B sample
Protocol: […] Each 30 mL Type I, clear glass sample vial with 20 mm Freeze Dry Stoppers (Flurotech™ coated) contained 150 mg of Compound I.
At each time point, a vial was removed from the stored condition and reconstituted with 10 mL of D5W and analyzed by HPLC method as discussed in Example 5 at 1 month, 2 months, 3 months, and/or 6 months. In Tables 18-18e, RRT matches the Compounds as shown below.
Sample Preparation—Method A: 10% Mannitol solution was prepared by weighing 200 g±1.0 g of mannitol into glass beaker, adding approximately 1500 mL of WFI (water for injection) to the beaker and stirring until mannitol was dissolved. The mannitol solution was transferred to a 2 L volumetric flask and made to volume with WFI, then poured back to the original beaker to sir and mix further. 1M HCl solution was prepared by adding 16.4 mL of HCl (37%) to a 200 mL volumetric flask containing approximately 100 mL of WFI, adding WFI to make 200 mL in volume, and inverting to mix the prepared solution.
To a tared 2 L Schott bottle containing a magnetic stirrer and wrapped in aluminum foil, 1020 g±1.0 g of the 10% mannitol solution was added. Then, 58.4 g±0.05 g of the 1M HCl solution was added to the 2 L Schott bottle and stirred for approximately 10 minutes. The solution prepared in the 2 L Schott bottle was purged with nitrogen which was continued throughout the manufacturing process. 30.22 g of Compound I (free base) was weighed then added to the 2 L Schott bottle containing 10% mannitol solution and 1 M HCl solution with continual magnetic stirring. The container used to weigh Compound I was rinsed with 3×10 mL of WFI and added to the Schott bottle. After Compound I dissolved (approximately 40 minutes), additional 650 g of WFI was added to the Schott bottle and the solution was stirred for approximately 10 minutes. The pH of the Compound I solution (in Schott bottle) was measured then adjusted to pH 4.5±0.1 using 1 M HCl solution. After each addition of 1 M HCl solution, the solution was stirred for several minutes prior to verifying the pH. Once the pH was adjusted, nitrogen purging was stopped. The pH adjusted Compound I solution was further diluted with WFI to a target weight of 2040 g±1.0 g and stirred.
The final solution (pH adjusted and diluted) was filtered (chain including PVD Fmembrane filter 0.45 μm and 0.22 μm; peristaltic filtration pump by Watson Marlow) in the Bigneat and the bottle containing the filtered solution was sealed. The filtered solution was pumped (Watson Marlow Flexicon PF6-B pump; 100 RPM) into 30 mL Schott Clear Glass vials (10.0 mL filtered solution each). The glass vials were partially stoppered with 20 mm Freeze Dry Stopper Flurotec (Daikyo Seiko) one vial at a time with sterilized utensils inside a fume hood (Envair B101+1.5R) and placed on freeze dryer trays. The freeze dryer trays were transferred into freeze dry chamber and vial probe was positioned (Lyostar II; FTS Kinetics). Lyophilization was performed using the lyophilization cycle listed below. After lyophilization cycle finished, the vials were back filled with N2 and the stopper was placed in situ, wiped down with isopropanol in the fume hood once removed from the freeze dryer, reconciled, then crimped. Seven vials out of 186 sample vials placed under the lyophilization cycle had smashed in the freeze dryer.
Sample Preparation—Method B (dissolved oxygen content ≤1 ppm): 2 L WFI was poured into a Schott bottled and degassed for 30 minutes with N2 until dissolved oxygen content was ≤1 ppm (dissolved oxygen meter and probe; Mettler Toledo). 10% Mannitol solution was prepared by adding […] of mannitol and 1000 mL of degassed WFI to a tared 2 L Schott bottle containing a magnetic stirrer and wrapped in aluminum foil. To the Schott bottle containing mannitol, 15 mL of 2M HCl was added and stirred for approximately 10 minutes. The resulting solution was sparged with N2 while stirring until dissolved oxygen content was ≤1 ppm (approx. 30 min). […]

[1] = 5° C, time not printed (2nd block, col 1)
[2] = 5° C, time not printed (2nd block, col 2)
[3] = 5° C, time not printed (2nd block, col 3)
[4] = 5° C, time not printed (2nd block, col 4)
[5] = −20° C., time not printed (2nd block, col 1)
[6] = −20° C., time not printed (2nd block, col 2)
[7] = −20° C., time not printed (2nd block, col 3)
[8] = −20° C., time not printed (2nd block, col 4)

## Cc1cnc(CNC(=O)c2c(=O)c3ccc(N4CCCN(C)CC4)nc3n3c2sc2ccccc23)cn1 [Compound I, 2-(4-Methyl-[1,4]diazepan-1-yl)-5-oxo-5H-7-thia-1,11b-diaza-benzo[c]fluorene-6-carboxylic acid (5-methyl-pyrazin-2-ylmethyl)-amide]
5° C, Initial
  pH (USP<791>): 4.6
[1]
  Appearance: Off-white powder
  Appearance (Reconstituted Solution): Clear, colorless
  Compound I by HPLC assay: 101.7%
  Related Substances RRT 1.05: RRT 1.05: 0.14%
  Related Substances RRT 1.07: RRT 1.07: 0.05%
  Related Substances Total: Total:0.2%
  Water Content USP<921 Method 1c>: 1.37%
  pH (USP<791>): 4.6
[2]
  Appearance: Off-white powder
  Appearance (Reconstituted Solution): Clear, colorless
  Compound I by HPLC assay: 101.3%
  Related Substances RRT 1.05: RRT 1.05: 0.13%
  Related Substances Total: Total: 0.1%
  Water Content USP<921 Method 1c>: 1.29%
  pH (USP<791>): 4.5
[3]
  Appearance: Off-white powder
  Appearance (Reconstituted Solution): Clear, colorless
  Compound I by HPLC assay: 100.3%
  Related Substances RRT 1.05: RRT 1.05: 0.13%
  Related Substances Total: Total: 0.1%
  Water Content USP<921 Method 1c>: 1.05%
  pH (USP<791>): 4.5
[4]
  Appearance: Off-white powder
  Appearance (Reconstituted Solution): Clear, colorless
  Compound I by HPLC assay: 99.1%
  Related Substances RRT 1.05: RRT 1.05: 0.11%
  Related Substances Total: Total: 0.1%
  Water Content USP<921 Method 1c>: 1.25%
  pH (USP<791>): 4.5
25° C./60% RH, 1 month
  Appearance: White
  Appearance (Reconstituted Solution): Clear, colorless
  Compound I by HPLC assay: 99.8%
  Reconstitution Time: 55 s
  Related Substances RRT 1.06: 0.17%
  Related Substances RRT 1.08: 0.06%
  Related Substances Total: Total: 0.2%
  Water Content USP<921 Method 1c>: 1.47%
  pH (USP<791>): 4.4
25° C./60% RH, 2 months
  Appearance: Off-white
  Appearance (Reconstituted Solution): Clear, colorless
  Compound I by HPLC assay: 101.0%
  Related Substances RRT 0.17: 0.08%
  Related Substances RRT 1.04: 0.08%
  Related Substances RRT 1.05: 0.17%
  Related Substances Total: Total: 0.3%
  Water Content USP<921 Method 1c>: 1.30%
  pH (USP<791>): 4.6
25° C./60% RH, 3 months
  Appearance: Off-white
  Appearance (Reconstituted Solution): Clear, colorless
  Compound I by HPLC assay: 100.8%
  Related Substances RRT 0.17: 0.09%
  Related Substances RRT 1.04: 0.08%
  Related Substances RRT 1.05: 0.19%
  Related Substances Total: Total: 0.4%
  Water Content USP<921 Method 1c>: 1.30%
  pH (USP<791>): 4.6
25° C./60% RH, 6 months
  Appearance: Off-white
  Appearance (Reconstituted Solution): Clear, colorless
  Compound I by HPLC assay: 100.3%
  Related Substances RRT 0.88: 0.06%
  Related Substances RRT 1.05: 0.16%
  Related Substances RRT 1.07: 0.10%
  Related Substances Total: Total: 0.3%
  Water Content USP<921 Method 1c>: 1.30%
  pH (USP<791>): 4.5
25° C./60% RH, 12 months
  Appearance: Off-white
  Appearance (Reconstituted Solution): Clear, colorless
  Compound I by HPLC assay: 100.7%
  Related Substances RRT 1.05: 0.18%
  Related Substances RRT 1.07: 0.09%
  Related Substances Total: Total: 0.3%
  Water Content USP<921 Method 1c>: 1.55%
  pH (USP<791>): 4.5
25° C./60% RH, 24 months
  Appearance: Off-white
  Appearance (Reconstituted Solution): Clear, colorless
  Compound I by HPLC assay: 97.6%
  Related Substances RRT 0.88: 0.05%
  Related Substances RRT 1.05: 0.16%
  Related Substances RRT 1.06: 0.17%
  Related Substances Total: Total: 0.4%
  Water Content USP<921 Method 1c>: 1.33%
  pH (USP<791>): 4.4
25° C./60% RH, Initial
  Appearance: White
  Appearance (Reconstituted Solution): Clear, colorless
  Compound I by HPLC assay: 100.2%
  Related Substances RRT 0.96: 0.05%
  Related Substances RRT 1.04: 0.05%
  Related Substances RRT 1.06: 0.17%
  Related Substances RRT 1.08: 0.06%
  Related Substances Total: Total: 0.3%
  Water Content USP<921 Method 1c>: 1.12%
  pH (USP<791>): 4.6
−20° C., 1 month
  Appearance: White powder
  Appearance (Reconstituted Solution): Clear, colorless
  Compound I by HPLC assay: 100.9%
  Reconstitution Time: 65 s
  Related Substances RRT 1.06: RRT 1.06: 0.16%
  Related Substances RRT 1.08: RRT 1.08: 0.06%
  Related Substances Total: Total: 0.2%
  Water Content USP<921 Method 1c>: 1.13%
  pH (USP<791>): 4.4
−20° C., 3 months
  Appearance: Off-white powder
  Appearance (Reconstituted Solution): Clear, colorless
  Compound I by HPLC assay: 99.5%
  Related Substances RRT 1.04: RRT 1.04: 0.08%
  Related Substances RRT 1.05: RRT 1.05: 0.18%
  Related Substances Total: Total: 0.3%
  Water Content USP<921 Method 1c>: 1.33%
  pH (USP<791>): 4.4
−20° C., 6 months
  Appearance: Off-white powder
  Appearance (Reconstituted Solution): Clear, colorless
  Compound I by HPLC assay: 99.7%
  Related Substances RRT 1.05: RRT 1.05: 0.13%
  Related Substances Total: Total: 0.1%
  Water Content USP<921 Method 1c>: 1.24%
  pH (USP<791>): 4.5
−20° C., Initial
  Appearance: White powder
  Appearance (Reconstituted Solution): Clear, colorless
  Compound I by HPLC assay: 100.2%
  Related Substances RRT 0.96: RRT 0.96: 0.05%
  Related Substances RRT 1.04: RRT 1.04: 0.05%
  Related Substances RRT 1.06: RRT 1.06: 0.17%
  Related Substances RRT 1.08: RRT 1.08: 0.06%
  Related Substances Total: Total:0.3%
  Water Content USP<921 Method 1c>: 1.12%
  pH (USP<791>): 4.6
[5]
  Appearance: Off-white powder
  Appearance (Reconstituted Solution): Clear, colorless
  Compound I by HPLC assay: 100.8%
  Related Substances RRT 1.05: RRT 1.05: 0.13%
  Related Substances Total: Total: 0.1%
  Water Content USP<921 Method 1c>: 1.30%
  pH (USP<791>): 4.6
[6]
  Appearance: Off-white powder
  Appearance (Reconstituted Solution): Clear, colorless
  Compound I by HPLC assay: 101.9%
  Related Substances RRT 1.05: RRT 1.05: 0.13%
  Related Substances Total: Total: 0.1%
  Water Content USP<921 Method 1c>: 1.29%
  pH (USP<791>): 4.5
[7]
  Appearance: Off-white powder
  Appearance (Reconstituted Solution): Clear, colorless
  Compound I by HPLC assay: 101.3%
  Related Substances RRT 1.05: RRT 1.05: 0.12%
  Related Substances Total: Total: 0.1%
  Water Content USP<921 Method 1c>: 1.10%
  pH (USP<791>): 4.5
[8]
  Appearance: Off-white powder
  Appearance (Reconstituted Solution): Clear, colorless
  Compound I by HPLC assay: 98.1%
  Related Substances RRT 1.05: RRT 1.05: 0.10%
  Related Substances Total: Total: 0.1%
  Water Content USP<921 Method 1c>: 1.10%
  pH (USP<791>): 4.4
